For one experiment, the system named is P. Aeruginosa strains. In words: Antibiotic disc diffusion on Müller-Hinton agar with or without FCCD. To be noted: for sensitivity of bacteria to antibiotic disc (in words): discs added with additional passages, FCCD medium. In kind it is cell-based, Pseudomonas aeruginosa. As for the experimental part: The studies are carried out in vitro by diffusion method on P. Aeruginosa strains indicated in previous experiments. Two rows of plates containing Müller-Hinton agar were prepared in parallel, with a 0.01-0.005% FCCD solution added to the second-row plates. After that, bacteria of the studied strains from a suspension containing 10^8 […] are inoculated on the surface of the agar. To do this, prepare a bacterial suspension corresponding to a concentration of 10^9 […] according to the optic turbidity standard of 10 units diluted with physiological salt solution 10 times (up to 10^8 μl/m1). […] Inoculations on plates with FCCD-free medium are used as controls, as well as media on which discs are not applied. Inoculations are incubated for 48 hours at 37° C. in one passage, then re-inoculation is carried out under similar conditions for the following passages. A total of 4 passages were carried out with controls. The results are taken into account by the diameter of the bacteria inhibition zones. On FCCD-free medium, there are no inhibition zones (an indicator of antibiotic resistance of bacteria), whereas on a medium containing 0.005-0.01% FCCD, a zone of bacterial growth inhibition from 25 to 40 mm in diameter forms around discs (appearance of sensitivity to antibiotic).
Growth inhibition zones were not observed for antibiotics Pseudomonas aeruginosa has genetically determined (initial) antibiotic resistance.

A further experiment deals with P. aeruginosa IMI-2016. Kind of experiment: MIC of antibiotics by serial dilution with or without FCCD. In kind it is cell-based. The protocol:
The study is carried out on P. aeruginosa strains given in the previous examples by in vitro serial dilution method using FCCD. Evaluate the decrease in resistance of Pseudomonas aeruginosa strains to amikacin and polymyxin. Prepare two rows of plates with Müller-Hinton nutrient medium: the first row contains various concentrations of the studied antibiotic (amikacin and polymyxin)—31, 62, 125, 250, 500 μg/ml of medium (double dilution). At the same time, prepare the same row of plates, but add FCCD additionally into the medium at a concentration of (0.0001-0.001) %. Inoculate 0.05 ml (drop) of each test strain on the plates from a bacterial suspension containing 10^8 […] according to the optic turbidity standard of 10 units. Müller-Hinton medium without antibiotic and Müller-Hinton medium containing 0.0001% of FCCD without antibiotic are used as controls. Inoculations are incubated at 37° C. for 48 hours. The results are considered by the value of MIC (minimum inhibitory concentration) with the obligatory growth of bacteria on control plates (see table 12).

Another experiment has as its system A. baumannii IMI-2016. The experiment is described as above. It is filed as cell-based.
A further experiment concerns K. pneumoniae IMI-2016. The description is as above. In kind it is cell-based.
Setting [1] is: Pseudomonas aeruginosa, IMI2016, Control (without FCCD), read-out: MIC.
[2] abbreviates: Pseudomonas aeruginosa, IMI2016, with FCCD 0.001 % (first FCCD line), read-out: MIC.
Where [3] appears, read: Pseudomonas aeruginosa, IMI2016, with FCCD 0.001 % (second FCCD line), read-out: MIC.
Setting [4] is: Acinetobacter baumannii, IMI2016, Control (without FCCD), read-out: MIC.
Setting [5] is: Acinetobacter baumannii, IMI2016, with FCCD 0.001 % (first FCCD line), read-out: MIC.
The mark [6] stands for this setting: Acinetobacter baumannii, IMI2016, with FCCD 0.001 % (second FCCD line), read-out: MIC.
[7] abbreviates: Klebsiella pneumoniae, IMI2016, Control (without FCCD), read-out: MIC.
[8] abbreviates: Klebsiella pneumoniae, IMI2016, with FCCD 0,001 % (first FCCD line), read-out: MIC.
Setting [9] is: Klebsiella pneumoniae, IMI2016, with FCCD 0,001 % (second FCCD line), read-out: MIC.
Setting [10] is: with FCCD 0.001 % (first FCCD line).
[11] abbreviates: with FCCD 0.001 % (second FCCD line).
Setting [12] is: with FCCD 0,001 % (first FCCD line).
Where [13] appears, read: with FCCD 0,001 % (second FCCD line).

Like-named read-outs stand apart in the source and are kept apart here.

Regarding `NCC[C@H](O)C(=O)N[C@@H]1C[C@H](N)[C@@H](O[C@H]2O[C@H](CN)[C@@H](O)[C@H](O)[C@H]2O)[C@H](O)[C@H]1O[C@H]1O[C@H](CO)[C@@H](O)[C@H](N)[C@H]1O` [Amikacin], the “zone of bacterial growth inhibition around disc (in words)” value with P. Aeruginosa strains (FCCD-free medium) is recorded as “no zone of bacterial growth inhibition”; in the experiment on P. Aeruginosa strains (medium with (0.005-0.01)% FCCD), “zone of bacterial growth inhibition appears”. In the experiment with P. aeruginosa IMI-2016 (Pseudomonas aeruginosa), the “increase of sensitivity to antibiotic under FCCD” value is 33 times. For the same compound, the MIC with P. aeruginosa IMI-2016 (setting [1]) is above 500 µg/mL; in the experiment on P. aeruginosa IMI-2016 (setting [2]), 15 µg/mL; with P. aeruginosa IMI-2016 (setting [3]) it was 125 µg/mL; in the experiment on A. baumannii IMI-2016 (setting [4]) it was above 500 µg/mL; in the experiment on A. baumannii IMI-2016 (setting [5]), 15 µg/mL; in the experiment on A. baumannii IMI-2016 (setting [6]), 125 µg/mL. For the same compound, the MIC in the experiment with K. pneumoniae IMI-2016 (setting [7]) was above 500 µg/mL; in the experiment on K. pneumoniae IMI-2016 (setting [8]), 31 µg/mL; with K. pneumoniae IMI-2016 (setting [9]) it was 62 µg/mL.

Take `CO/N=C(\C(=O)N[C@@H]1C(=O)N2C(C(=O)O)=C(CSc3nc(=O)c(=O)[nH]n3C)CS[C@H]12)c1csc(N)n1` [Ceftriaxone]: the MIC was above 500 µg/mL with P. aeruginosa IMI-2016 (setting [1]); 250 µg/mL with P. aeruginosa IMI-2016 (setting [2]); 500 µg/mL with P. aeruginosa IMI-2016 (setting [3]); above 500 µg/mL with A. baumannii IMI-2016 (setting [4]); 250 µg/mL with A. baumannii IMI-2016 (setting [5]); 125 µg/mL with A. baumannii IMI-2016 (setting [6]). Besides, the MIC in the experiment with K. pneumoniae IMI-2016 (setting [7]) was above 500 µg/mL; with K. pneumoniae IMI-2016 (setting [8]), 125 µg/mL; in the experiment on K. pneumoniae IMI-2016 (setting [9]), 250 µg/mL.

`C[C@@H](O)[C@H]1C(=O)N2C(C(=O)O)=C(SCCN=CN)C[C@H]12` [Imipinem]: the MIC was above 500 µg/mL with P. aeruginosa IMI-2016 (Control (without FCCD)); 250 µg/mL in the experiment with P. aeruginosa IMI-2016 (setting [10]); 125 µg/mL in the experiment on P. aeruginosa IMI-2016 (setting [11]); above 500 µg/mL in the experiment on A. baumannii IMI-2016 (Control (without FCCD)); 250 µg/mL in the experiment with A. baumannii IMI-2016 (setting [10]); 31 µg/mL in the experiment with A. baumannii IMI-2016 (setting [11]). The values for the MIC with K. pneumoniae IMI-2016 (Control (without FCCD)), in the experiment on K. pneumoniae IMI-2016 (setting [12]) and in the experiment on K. pneumoniae IMI-2016 (setting [13]) were above 500 µg/mL, 250 µg/mL and 125 µg/mL, respectively.

Take `C[C@H]1COc2c(N3CCN(C)CC3)c(F)cc3c(=O)c(C(=O)O)cn1c23` [Levofloxacin]: the MIC is above 500 µg/mL with P. aeruginosa IMI-2016 (setting [1]); 125 µg/mL with P. aeruginosa IMI-2016 (setting [2]); 250 µg/mL in the experiment with P. aeruginosa IMI-2016 (setting [3]); above 500 µg/mL in the experiment with A. baumannii IMI-2016 (setting [4]); 125 µg/mL with A. baumannii IMI-2016 (setting [5]); 62 µg/mL with A. baumannii IMI-2016 (setting [6]). In addition, the figures for the MIC in the experiment with K. pneumoniae IMI-2016 (setting [7]), in the experiment with K. pneumoniae IMI-2016 (setting [8]) and with K. pneumoniae IMI-2016 (setting [9]) were above 500 µg/mL, 125 µg/mL and 250 µg/mL, respectively.

As to `CC1(C)S[C@@H]2[C@H](NC(=O)[C@H](N)c3ccc(O)cc3)C(=O)N2[C@H]1C(=O)O` [amoxicillin], the “sensitivity of bacteria to antibiotic disc (in words)” value in the experiment on P. Aeruginosa strains is recorded as “did not appear sensitive”.

In the case of `Cc1nnc(SCC2=C(C(=O)O)N3C(=O)[C@@H](NC(=O)Cn4cnnn4)[C@H]3SC2)s1` [cefazolin], the “sensitivity of bacteria to antibiotic disc (in words)” value in the experiment with P. Aeruginosa strains is listed as “did not appear sensitive”.

For Polymyxin, the results for the “zone of bacterial growth inhibition around disc (in words)” value in the experiment with P. Aeruginosa strains (FCCD-free medium) and in the experiment with P. Aeruginosa strains (medium with (0.005-0.01)% FCCD) were “no zone of bacterial growth inhibition” and “zone of bacterial growth inhibition appears”, respectively. Further, the MIC in the experiment with P. aeruginosa IMI-2016 (Control (without FCCD)) is 250 µg/mL; in the experiment on P. aeruginosa IMI-2016 (setting [10]), 31 µg/mL; in the experiment on P. aeruginosa IMI-2016 (setting [11]) it was 125 µg/mL; in the experiment on A. baumannii IMI-2016 (Control (without FCCD)), above 500 µg/mL; in the experiment on A. baumannii IMI-2016 (setting [10]) it was 31 µg/mL; in the experiment on A. baumannii IMI-2016 (setting [11]), 62 µg/mL. Moreover, the figures for the MIC in the experiment on K. pneumoniae IMI-2016 (Control (without FCCD)), in the experiment on K. pneumoniae IMI-2016 (setting [12]) and with K. pneumoniae IMI-2016 (setting [13]) were above 500 µg/mL, 62 µg/mL and 125 µg/mL, respectively. In addition, in the experiment on P. aeruginosa IMI-2016 (Pseudomonas aeruginosa), the “increase of sensitivity to antibiotic under FCCD” value amounted to 16 times.

The values are drawn from US11191767B2, “Pharmaceutical composition for stimulating stem cell division and suppressing bacterial virulence” (priority 2017, dated 2021).
